# In US7709481B2, “Phenyl-1,2,4-oxadiazolone derivatives, processes for their preparation and methods for their use as pharmaceuticals” (Sanofi-Aventis, priority 2005, dated 2010):
# pEC50: −log10 of the molar value.
# Assays:
# human PPARdelta = target: T1, human PPARdelta (Homo sapiens, UniProt Q03181); test: Cellular PPARdelta assay (HEK PPARdelta reporter cell line, luciferase); type: cell-based; conditions: 24 h incubation
# T1 construct: human PPARdelta receptor (amino acids S139-Y441); expressed in transfected cells; plasmid pcDNA3
# T1 sequence (Q03181 139-441): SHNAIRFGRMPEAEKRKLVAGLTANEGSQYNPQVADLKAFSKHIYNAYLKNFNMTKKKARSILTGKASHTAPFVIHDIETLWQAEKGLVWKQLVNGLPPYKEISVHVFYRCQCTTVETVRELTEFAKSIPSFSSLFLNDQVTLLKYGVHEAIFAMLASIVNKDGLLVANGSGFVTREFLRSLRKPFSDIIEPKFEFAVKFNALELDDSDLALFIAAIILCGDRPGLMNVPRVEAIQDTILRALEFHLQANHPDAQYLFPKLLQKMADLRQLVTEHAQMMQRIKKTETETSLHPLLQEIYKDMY
# Procedure: The raw data from the luminometer are transferred into a Microsoft Excel file. Dose-effect plots and EC50 values of PPAR agonists are calculated using the XL.Fit program as specified by the manufacturer (IDBS). […] Compounds of the invention of the formula I activate the PPARalpha receptor. Determination of EC50 values of PPAR agonists in the cellular PPARdelta assay The potency of substances which bind to human PPARdelta and activate it in an agonistic manner is analyzed using a stably transfected HEK cell line (HEK=human embryo kidney) which is referred to here as PPARdelta reporter cell line. In analogy to the assay described for PPARalpha, the PPARdelta reporter cell line also contains two genetic elements, a luciferase reporter element (pdeltaM-GAL4-Luc-Zeo) and a PPARdelta fusion protein (GR-GAL4-humanPPARdelta-LBD) which mediates expression of the luciferase reporter element depending on a PPARdelta ligand. The stably and constitutively expressed fusion protein GR-GAL4-humanPPARdelta-LBD binds in the cell nucleus of the PPARdelta reporter cell line via the GAL4 protein portion to the GAL4 DNA binding motifs 5′-upstream of the luciferase reporter element which is stably integrated in the genome of the cell line. There is only little expression of the luciferase reporter gene in the absence of a PPARdelta ligand if fatty acid-depleted fetal calf serum (cs-FCS) is used in the assay. PPARdelta ligands bind and activate the PPARdelta fusion protein and thereby stimulate expression of the luciferase reporter gene. The luciferase which is formed can be detected by means of chemiluminescence via an appropriate substrate.
# The production of the stable PPARdelta reporter cell line is based on a stable HEK-cell clone which was stably transfected with a luciferase reporter element. This step was already described above in the section “construction of the PPARalpha reporter cell line”. In a second step, the PPARdelta fusion protein (GR-GAL4-humanPPARdelta-LBD was stably introduced into this cell clone. For this purpose, the cDNA coding for the N-terminal 76 amino acids of the glucocorticoid receptor (Accession # P04150) was linked to the cDNA section coding for amino acids 1-147 of the yeast transcription factor GAL4 (Accession # P04386). The cDNA of the ligand-binding domain of the human PPARdelta receptor (amino acids S139-Y441; Accession # L07592) was cloned in at the 3′-end of this GR-GAL4 construct. The fusion construct prepared in this way (GR-GAL4-humanPPARdelta-LBD) was recloned into the plasmid pcDNA3 (Invitrogen) in order to enable constitutive expression by the cytomegalovirus promoter. This plasmid was linearized with a restriction endonuclease and stably transfected into the previously described cell clone containing the luciferase reporter element. The resulting PPARdelta reporter cell line which contains a luciferase reporter element and constitutively expresses the PPARdelta fusion protein (GR-GAL4-human PPARdelta-LBD) was isolated by selection with zeocin (0.5 mg/ml) and G418 (0.5 mg/ml).
# The activity of PPARdelta agonists is determined in a 3-day assay in exact analogy to the procedure already described for the PPARalpha reporter cell line except that the PPARdelta reporter cell line and a specific PPARdelta agonist was used as a standard to control test efficacy. PPARdelta EC50 values in the range from 0.3 nM to >10 μM were measured for the PPAR agonists of Examples 1 to 69 described in this application. Compounds of the invention of the formula I activate the PPARdelta receptor.
# human PPARalpha = target: T2, human PPARalpha (Homo sapiens, UniProt Q07869); test: Cellular PPARalpha assay (HEK PPARalpha reporter cell line, luciferase); type: cell-based; conditions: 24 h incubation
# T2 construct: human PPARalpha receptor (amino acids S167-Y468); expressed in transfected cells; plasmid pcDNA3
# T2 sequence (Q07869 167-468): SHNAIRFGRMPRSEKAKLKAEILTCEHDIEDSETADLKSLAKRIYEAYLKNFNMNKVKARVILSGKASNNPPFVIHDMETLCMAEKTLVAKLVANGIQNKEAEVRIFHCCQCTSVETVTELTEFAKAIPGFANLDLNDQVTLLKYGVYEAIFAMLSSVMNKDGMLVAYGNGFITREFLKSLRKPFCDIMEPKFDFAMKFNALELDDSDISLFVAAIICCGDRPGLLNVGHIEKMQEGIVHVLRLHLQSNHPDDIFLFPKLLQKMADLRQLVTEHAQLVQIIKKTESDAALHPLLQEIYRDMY
# Procedure: The activity of the compounds was tested as follows. The potency of substances which bind to human PPARalpha and activate it in an agonistic manner is analyzed using a stably transfected HEK cell line (HEK=human embryo kidney) which is referred to here as PPARalpha reporter cell line. It contains two genetic elements, a luciferase reporter element (pdeltaM-GAL4-Luc-Zeo) and a PPARalpha fusion protein (GR-GAL4-humanPPARalpha-LBD) which mediates expression of the luciferase reporter element depending on a PPARalpha ligand. The stably and constitutively expressed fusion protein GR-GAL4-humanPPARalpha-LBD binds in the cell nucleus of the PPARalpha reporter cell line via the GAL4 protein portion to the GAL4 DNA binding motifs 5′-upstream of the luciferase reporter element which is stably integrated in the genome of the cell line. There is only weak expression of the luciferase reporter gene in the absence of a PPARalpha ligand if fatty acid-depleted fetal calf serum (cs-FCS) is used in the assay. PPARalpha ligands bind and activate the PPARalpha fusion protein and thereby stimulate the expression of the luciferase reporter gene. The luciferase which is formed can be detected by means of chemiluminescence via an appropriate substrate.
# The PPARalpha reporter cell line was prepared in two stages. Firstly, the luciferase reporter element was constructed and stably transfected into HEK cells. For this purpose, five binding sites of the yeast transcription factor GAL4 (Accession # AF264724) were cloned in 5′-upstream of a 68 bp-long minimal MMTV promoter (Accession # V01175). The minimal MMTV promoter section contains a CCAAT box and a TATA element in order to enable efficient transcription by RNA polymerase II. The cloning and sequencing of the GAL4-MMTV construct took place in analogy to the description of Sambrook J. et. al. (Molecular cloning, Cold Spring Harbor Laboratory Press, 1989). Then the complete Photinus pyralis gene (Accession # M15077) was cloned in 3′-downstream of the GAL4-MMTV element. After sequencing, the luciferase reporter element consisting of five GAL4 binding sites, MMTV promoter and luciferase gene was recloned into a plasmid which confers zeocin resistance in order to obtain the plasmid pdeltaM-GAL4-Luc-Zeo. This vector was transfected into HEK cells in accordance with the statements in Ausubel, F. M. et al. (Current protocols in molecular biology, Vol. 1-3, John Wiley & Sons, Inc., 1995).
# In a second step, the PPARalpha fusion protein (GR-GAL4-humanPPARalpha-LBD was introduced into the stable cell clone described. For this purpose, initially the cDNA coding for the N-terminal 76 amino acids of the glucocorticoid receptor (Accession # P04150) was linked to the cDNA section coding for amino acids 1-147 of the yeast transcription factor GAL4 (Accession # P04386). The cDNA of the ligand-binding domain of the human PPARalpha receptor (amino acids S167-Y468; Accession # S74349) was cloned in at the 3′-end of this GR-GAL4 construct. The fusion construct prepared in this way (GR-GAL4-humanPPARalpha-LBD) was recloned into the plasmid pcDNA3 (Invitrogen) in order to enable constitutive expression therein by the cytomegalovirus promoter. This plasmid was linearized with a restriction endonuclease and stably transfected into the previously described cell clone containing the luciferase reporter element. The finished PPARalpha reporter cell line which contains a luciferase reporter element and constitutively expresses the PPARalpha fusion protein (GR-GAL4-human PPARalpha-LBD) was isolated by selection with zeocin (0.5 mg/ml) and G418 (0.5 mg/ml).
# The activity of PPARalpha agonists is determined in a 3-day assay which is described below: […]
SMILES,pEC50 (human PPARdelta),pEC50 (human PPARalpha)
"CCC(Oc1ccc(-c2noc(=O)[nH]2)c(F)c1)c1sc([C@H]2CC[C@H](C(F)(F)F)CC2)nc1CN1CCC(C(F)(F)F)CC1 (stereo partly drawn) [Example 68, 3-(2-Fluoro-4-{1-[2-(trans-1,4-trifluoromethyl-cyclohexyl)-4-(4-trifluoromethyl-piperidin-1-ylmethyl)-thiazol-5-yl]-propoxy}-phenyl)-4H-1,2,4-oxadiazol-5-one]",6.89,< 4.48
"Cc1nc(-c2cccc3cccnc23)sc1COc1ccc(-c2nc(=O)o[nH]2)c(Cl)c1 [Example 46, 3-[2-Chloro-4-(4-methyl-2-quinolin-8-yl-thiazol-5-ylmethoxy)-phenyl]-2H-[1,2,4]oxadiazol-5-one]",5.13,5.36
"COCc1nc([C@H]2CC[C@H](C(F)(F)F)CC2)oc1COc1ccc(-c2noc(=O)[nH]2)c(Cl)c1 [Example 18a, Trans-3-{2-Chloro-4-[4-methoxymethyl-2-(4-trifluoromethyl-cyclohexyl)-oxazol-5-ylmethoxy]-phenyl}-4H-[1,2,4]oxadiazol-5-one]",7.40,5.60
"Cc1nc([C@H]2CC[C@H](C(F)(F)F)CC2)sc1C(OCc1ccc(-c2noc(=O)[nH]2)c(C2CC2)c1)C(F)(F)F (stereo partly drawn) [Example 39, 3-(2-Cyclopropyl-4-{2,2,2-trifluoro-1-[4-methyl-2-(trans,1,4-trifluoromethyl-cyclohexyl)-thiazol-5-yl]-ethoxymethyl}-phenyl)-4H-[1,2,4]oxadiazol-5-one]",7.07,5.26
"CCC(Oc1cc(OC)c(-c2noc(=O)[nH]2)cc1F)c1sc([C@H]2CC[C@H](C(F)(F)F)CC2)nc1C (stereo partly drawn) [Example 51, 3-(5-Fluoro-2-methoxy-4-{1-[4-methyl-2-(trans-1,4-trifluoromethyl-cyclohexyl)-thiazol-5-yl]-propoxy}-phenyl)-4H-1,2,4-oxadiazol-5-one]",8.15,6.47
"O=c1[nH]c(-c2ccc(OCc3sc(-c4ccc(C(F)(F)F)nc4)nc3CCCOCc3ccccc3)cc2Cl)no1 [Example 25, 3-{4-[4-(3-Benzyloxy-propyl)-2-(6-trifluoromethyl-pyridin-3-yl)-thiazol-5-ylmethoxy]-2-chloro-phenyl}-4H-[1,2,4]oxadiazol-5-one]",9.52,7.12
"CCC(Oc1ccc(-c2noc(=O)[nH]2)c(F)c1)c1sc([C@H]2CC[C@H](C(F)(F)F)CC2)nc1C (stereo partly drawn) [Example 66, 3-(2-Fluoro-4-{1-[4-methyl-2-(trans-1,4-trifluoromethyl-cyclohexyl)-thiazol-5-yl]-propoxy}-phenyl)-4H-1,2,4-oxadiazol-5-one]",7.96,6.52
"COCc1nc([C@H]2CC[C@H](c3ccc(Cl)cc3)CC2)sc1COc1ccc(-c2noc(=O)[nH]2)c(Cl)c1 [Example 12, Trans-3-(2-Chloro-4-{2-[4-(4-chloro-phenyl)-cyclohexyl]-4-methoxymethyl-thiazol-5-ylmethoxy}-phenyl)-4H-[1,2,4]oxadiazol-5-one]",8.00,6.10
"Cc1nc(-c2ccc(C(F)(F)F)nc2)sc1C(OCc1ccc(-c2noc(=O)[nH]2)c(Cl)n1)C(F)(F)F (stereo not drawn) [Example 37, 3-(2-Chloro-6-{2,2,2-trifluoro-1-[4-methyl-2-(6-trifluoromethyl-pyridin-3-yl)-thiazol-5-yl]-ethoxymethyl}-pyridin-3-yl)-4H-[1,2,4]oxadiazol-5-one]",7.23,< 4.48
"O=c1[nH]c(-c2cc(F)c(OCc3sc([C@H]4CC[C@H](C(F)(F)F)CC4)nc3CN3CCC(C(F)(F)F)CC3)cc2OC(F)F)no1 [Example 62, 3-{2-Difluoromethoxy-5-fluoro-4-[2-(trans-1,4-trifluoromethyl-cyclohexyl)-4-(4-trifluoromethyl-piperidin-1-ylmethyl)-thiazol-5-ylmethoxy]-phenyl}-4H-1,2,4-oxadiazol-5-one]",7.28,< 4.48
"COCc1nc(C2CCCCCC2)sc1COc1ccc(-c2noc(=O)[nH]2)c(Cl)c1 [Example 11, 3-[2-Chloro-4-(2-cycloheptyl-4-methoxymethyl-thiazol-5-ylmethoxy)-phenyl]-4H-[1,2,4]oxadiazol-5-one]",6.89,5.90
"COCc1nc(CCC2CCCCC2)sc1COc1ccc(-c2noc(=O)[nH]2)c(Cl)c1 [Example 10, 3-{2-Chloro-4-[2-(2-cyclohexyl-ethyl)-4-methoxymethyl-thiazol-5-ylmethoxy]-phenyl}-4H-[1,2,4]oxadiazol-5-one]",7.15,6.28
